Assay results as given in patent EP1068805A1, “Dietetic foods and pharmaceutical preparations inhibiting blood coagulation” (CPC INTERNATIONAL INC., priority 1996, dated 1997).
Like-named read-outs stand apart in the source and are kept apart here.

How the values were obtained:
Υ-glutamylcarboxylase [1] = molecular target: T1, Υ-glutamylcarboxylase (Bos taurus, UniProt Q07175); test: Inhibition of carboxylase activity in salt-washed liver microsomes, bovine system; type: biochemical; conditions: cofactor KH2; mean of triplicate experiments with S.E.M.; read-out: I-50 (µm) in bovine system
T1 sequence (Q07175 2-758): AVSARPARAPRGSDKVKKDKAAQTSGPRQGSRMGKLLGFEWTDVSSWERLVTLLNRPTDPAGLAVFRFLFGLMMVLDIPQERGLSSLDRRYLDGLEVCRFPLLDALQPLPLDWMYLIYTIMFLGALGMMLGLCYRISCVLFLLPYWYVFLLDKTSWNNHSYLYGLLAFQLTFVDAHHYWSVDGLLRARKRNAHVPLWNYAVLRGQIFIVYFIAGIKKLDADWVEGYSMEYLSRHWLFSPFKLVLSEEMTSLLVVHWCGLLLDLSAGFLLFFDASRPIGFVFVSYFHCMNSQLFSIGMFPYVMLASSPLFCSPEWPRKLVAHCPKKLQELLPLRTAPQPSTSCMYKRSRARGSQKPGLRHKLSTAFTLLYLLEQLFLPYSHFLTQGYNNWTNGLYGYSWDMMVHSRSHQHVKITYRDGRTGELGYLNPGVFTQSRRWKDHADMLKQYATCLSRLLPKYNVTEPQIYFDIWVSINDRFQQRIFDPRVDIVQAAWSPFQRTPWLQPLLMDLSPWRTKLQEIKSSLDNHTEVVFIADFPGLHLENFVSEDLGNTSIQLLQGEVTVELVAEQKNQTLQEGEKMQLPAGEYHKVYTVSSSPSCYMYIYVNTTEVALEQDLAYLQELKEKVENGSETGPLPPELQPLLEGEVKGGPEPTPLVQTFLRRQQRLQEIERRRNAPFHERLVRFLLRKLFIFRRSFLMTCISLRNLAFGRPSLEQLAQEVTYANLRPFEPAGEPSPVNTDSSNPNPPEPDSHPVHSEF
Source text: (§1) Prenylquinones like phylloquinone (vitamin K1), ubiquinone and plastoquinone function as co-enzymes during the conversion of glutamate into γ-carboxyl-glutamate (Gla), which is an essential step in the formation of the blood coagulation factors. The active form of vitamin K is the quinol (KH2), the oxidation of which provides the energy required for Gla formation. In this reaction KH2 is converted into vitamin K epoxide (KO), which is recycled in two steps by the action of an enzyme called KO-reductase.
(§2) In vitro systems were used to test either the γ-glutamylcarboxylase or KO-reductase. Salt-washed microsomes were prepared from the livers of normal cows and from normal and vitamin K-deficient rats of the Lewis strain.
(§3) Inhibition curves were prepared at a wide concentration range of prenylquinones (UQ-9, UQ-10, and PQ-9) using the cofactor vitamin K either in its quinol, its quinone, or in its epoxide form. From these curves the inhibitor concentrations required for 50% inhibition (I-50) were calculated (dotted lines in Fig. 1) for the various carboxylating enzyme systems from the cow as well as from rats. Incubations were performed under standard conditions, the inhibitors were added after solubilization in Triton X- 114. All points in Fig. 1 represent the means of duplicate experiments. 1-50 values were calculated as shown by the dotted lines.

Υ-glutamylcarboxylase [2] = test: as above; type: biochemical; conditions: mean of triplicate experiments with S.E.M., read-out: I-50 (µm) in bovine system
Source text: as §1, §2, §3

Υ-glutamylcarboxylase [3] = molecular target: T2, Υ-glutamylcarboxylase (Rattus norvegicus, UniProt O88496); test: Inhibition of carboxylase activity in salt-washed liver microsomes, rat system; type: biochemical, rats of the Lewis strain; conditions: cofactor KH2; mean of triplicate experiments with S.E.M.; read-out: I-50 (µM) in rat system
T2 sequence (O88496 1-758): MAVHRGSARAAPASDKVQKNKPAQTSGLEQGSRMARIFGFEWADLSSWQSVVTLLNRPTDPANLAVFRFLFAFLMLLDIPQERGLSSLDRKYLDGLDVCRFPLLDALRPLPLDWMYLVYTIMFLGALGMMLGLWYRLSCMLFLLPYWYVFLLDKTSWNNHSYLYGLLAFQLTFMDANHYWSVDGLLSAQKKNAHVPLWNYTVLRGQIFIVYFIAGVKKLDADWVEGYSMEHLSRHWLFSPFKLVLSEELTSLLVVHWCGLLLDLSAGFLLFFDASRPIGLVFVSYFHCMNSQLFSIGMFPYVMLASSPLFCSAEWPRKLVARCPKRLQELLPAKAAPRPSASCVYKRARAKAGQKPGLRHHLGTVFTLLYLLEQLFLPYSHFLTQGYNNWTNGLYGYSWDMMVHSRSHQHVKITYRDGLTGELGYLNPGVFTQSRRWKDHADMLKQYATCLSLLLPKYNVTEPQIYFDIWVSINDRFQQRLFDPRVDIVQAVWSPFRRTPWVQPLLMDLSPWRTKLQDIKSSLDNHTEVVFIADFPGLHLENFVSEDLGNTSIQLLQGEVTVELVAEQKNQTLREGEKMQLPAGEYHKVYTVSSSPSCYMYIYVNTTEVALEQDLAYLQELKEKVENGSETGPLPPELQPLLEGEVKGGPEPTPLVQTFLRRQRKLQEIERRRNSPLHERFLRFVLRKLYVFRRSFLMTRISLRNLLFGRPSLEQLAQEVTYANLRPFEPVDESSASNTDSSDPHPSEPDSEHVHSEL
Source text: as §1, §2, §3

plasma prothrombin = test: Effect of dietary oils on plasma prothrombin concentration (rat feeding study); type: in vivo, Wistar rats; conditions: animal data extrapolated to adult reference person of about 60 kg

Compound	IC50 (Υ-glutamylcarboxylase [1])	IC50 (Υ-glutamylcarboxylase [2]; cofactor K)	IC50 (Υ-glutamylcarboxylase [2]; cofactor KO)	IC50 (Υ-glutamylcarboxylase [3])	effective dose extrapolated to humans (plasma prothrombin)
CC(C)=CCC/C(C)=C/CC/C(C)=C/CC/C(C)=C/CC/C(C)=C/CC/C(C)=C/CC/C(C)=C/CC/C(C)=C/CC/C(C)=C/CC1=CC(=O)C(C)=C(C)C1=O [PQ-9, plastoquinone]	85 ± 11 µM	59 ± 4 µM	41 ± 7 µM	39 ± 10 µM	–
COC1=C(OC)C(=O)C(CC=C(C)CCC=C(C)CCC=C(C)CCC=C(C)CCC=C(C)CCC=C(C)CCC=C(C)CCC=C(C)CCC=C(C)C)=C(C)C1=O [UQ-9, ubiquinone-9]	105 ± 14 µM	86 ± 12 µM	72 ± 8 µM	25 ± 6 µM	about 40 mg
COC1=C(OC)C(=O)C(CC=C(C)CCC=C(C)CCC=C(C)CCC=C(C)CCC=C(C)CCC=C(C)CCC=C(C)CCC=C(C)CCC=C(C)CCC=C(C)C)=C(C)C1=O [UQ-10, ubiquinone-10]	110 ± 17 µM	76 ± 5 µM	91 ± 15 µM	36 ± 7 µM	–
